Data as given in patent US8476265B2, “Compounds-801” (AstraZeneca AB, priority 2010, dated 2013).

Legend:
Adrenergic β2 [1] = biological target: T1, Adrenergic β2 (Homo sapiens, UniProt P07550); assay: Adrenergic β2 mediated cAMP production in H292 cells (AlphaScreen), concentration response; format: cell-based; settings: for EC50: 60 min, 300 μM rolipram, read-out: β2 pEC50 (converted); for β2 Intrinsic Activity: fraction relative to the maximum activity determined for formoterol
T1 construct: Adherent H292 cells are removed from tissue culture flasks by treatment with Accutase™ cell detachment solution; endogenous in cells; host or cells: H292 cells
T1 sequence (P07550 whole entry): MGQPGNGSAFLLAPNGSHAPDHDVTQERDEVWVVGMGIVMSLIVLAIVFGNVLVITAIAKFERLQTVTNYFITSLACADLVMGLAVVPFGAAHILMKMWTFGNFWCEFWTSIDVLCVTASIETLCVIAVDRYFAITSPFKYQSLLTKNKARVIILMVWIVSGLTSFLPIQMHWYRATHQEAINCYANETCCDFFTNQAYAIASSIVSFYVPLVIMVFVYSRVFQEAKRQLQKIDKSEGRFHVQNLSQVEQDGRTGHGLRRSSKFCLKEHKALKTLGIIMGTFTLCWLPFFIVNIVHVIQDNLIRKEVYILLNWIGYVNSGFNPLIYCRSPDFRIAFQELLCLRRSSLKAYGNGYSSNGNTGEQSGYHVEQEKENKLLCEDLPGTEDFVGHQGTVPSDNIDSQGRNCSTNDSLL
Procedure, shortened: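 Intracellular cAMP in lysates read by AlphaScreen, calibrated with cAMP standards; curves fitted for pEC50, with intrinsic activity as a fraction of formoterol's maximum. Agonist exposure 60 min at room temperature after 10 min rolipram (300 μM final), 1% DMSO, HEPES-buffered HBSS pH 7.4.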

[2] = biological target: T2, human muscarinic acetylcholine M3 receptor (Homo sapiens, UniProt P20309); assay: Muscarinic 3 receptor binding assay ([3H]NMS competition, SPA), pIC50; settings: [3H]NMS 0.1 nM, CHO-K1 cell membranes expressing human M3 receptor
T2 construct: expressed in transfected cells; host or cells: CHO-K1 (Chinese Hamster Ovary) cell membranes
T2 sequence (P20309 whole entry): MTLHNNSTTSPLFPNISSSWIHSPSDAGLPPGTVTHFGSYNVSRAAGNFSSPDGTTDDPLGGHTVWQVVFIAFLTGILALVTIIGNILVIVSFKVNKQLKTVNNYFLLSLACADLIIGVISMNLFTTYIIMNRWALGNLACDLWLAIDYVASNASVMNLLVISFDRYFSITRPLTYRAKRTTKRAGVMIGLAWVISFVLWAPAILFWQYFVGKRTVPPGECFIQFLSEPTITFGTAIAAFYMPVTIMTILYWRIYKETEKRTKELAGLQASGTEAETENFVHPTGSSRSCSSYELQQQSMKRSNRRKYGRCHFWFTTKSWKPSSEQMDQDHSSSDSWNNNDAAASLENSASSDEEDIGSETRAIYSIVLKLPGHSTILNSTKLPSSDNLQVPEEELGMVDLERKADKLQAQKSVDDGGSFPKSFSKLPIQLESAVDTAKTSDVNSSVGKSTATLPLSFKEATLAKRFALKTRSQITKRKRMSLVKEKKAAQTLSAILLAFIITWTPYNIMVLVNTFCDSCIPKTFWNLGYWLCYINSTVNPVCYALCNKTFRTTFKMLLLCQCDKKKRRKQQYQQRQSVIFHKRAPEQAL
Procedure, shortened: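 SPA beads precoated with human M3-expressing CHO-K1 membranes were incubated 16 h at room temperature with serially diluted compound and 0.1 nM [3H]NMS (pH 7.4 HEPES buffer, MgCl2, BSA, 1% DMSO). Atropine (1 μM) defined non-specific binding; pIC50 is the 50% reduction in specific binding.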

Adrenergic β2 [3] = biological target: T1, Adrenergic β2; assay: Adrenergic β2 mediated cAMP production in H292 cells, single concentration 1 μM; format: cell-based; settings: NCI-H292, 1 μM compound, cAMP as percentage of the maximum response generated by 1E-07M formoterol, read-out: β2 % effect @1 uM
Procedure, shortened: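 H292 cells pretreated with rolipram (300 μM final) 10 min, then compound at 1 μM final, 1% DMSO, 60 min at room temperature in HBSS/10 mM HEPES pH 7.4/5 mM glucose. Lysate cAMP quantified by AlphaScreen against a standard curve, as % of maximal response to 1E-07M formoterol.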

[4] = biological target: T2, human muscarinic acetylcholine M3 receptor; assay: Muscarinic 3 receptor binding assay ([3H]NMS competition, SPA), single concentration 1 μM; settings: 1 μM compound; % inhibition specific [3H]-NMS binding
Procedure, shortened: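 CHO-K1 membranes expressing human M3 on SPA beads, competition with 0.1 nM [3H]NMS (quarter Kd) in 20 mM HEPES pH 7.4, 5 mM MgCl2, 0.1% BSA, 1% DMSO; compound at 1 μM. 16 h at room temperature. Value is % inhibition of specific binding, non-specific defined with 1 μM atropine.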

Row | SMILES | EC50 (Adrenergic β2 [1]) [nM] | β2 Intrinsic Activity (Adrenergic β2 [1]) | IC50 [2] [nM] | percent of formoterol maximum response at 1 µM (Adrenergic β2 [3]) [%] | inhibition at 1 µM [4] [%]
1 | O=C1COc2c(CCNCCN(C(=O)CCOCCc3cccc(CN4CCC5(CC4)CN(C(=O)c4csc(CC(F)(F)F)n4)CCO5)c3)C3CCCCC3)ccc(O)c2N1 [Example 174, N-Cyclohexyl-N-(2-(2-(5-hydroxy-3-oxo-3,4-dihydro-2H-benzo[b][1,4]oxazin-8-yl)ethylamino)ethyl)-3-(3-((4-(2-(2,2,2-trifluoroethyl)thiazole-4-carbonyl)-1-oxa-4,9-diazaspiro[5.5]undecan-9-yl)methyl)phenethoxy)propanamide] | 50.1 | 1.0 | 0.251 | 88 | 100
2 | CCCCc1nc(C(=O)N2CCOC3(CCN(Cc4cccc(CCOCCC(=O)N(CCNCCc5ccc(O)c6c5OCC(=O)N6)C5CCCCC5)c4)CC3)C2)cs1 [Example 175, 3-(3-((4-(2-Butylthiazole-4-carbonyl)-1-oxa-4,9-diazaspiro[5.5]undecan-9-yl)methyl)phenethoxy)-N-cyclohexyl-N-(2-(2-(5-hydroxy-3-oxo-3,4-dihydro-2H-benzo[b][1,4]oxazin-8-yl)ethylamino)ethyl)propanamide] | 63.1 | 1.0 | 0.316 | 86 | 100
